ChEMBL document CHEMBL1157539, “Thousands of chemical starting points for antimalarial lead identification” (Nature, 2010)

Tested on: Plasmodium falciparum
Assay: GSK_TCMDC: Inhibition of Plasmodium falciparum 3D7 in whole erythrocytes, using parasite LDH activity as an index of growth.
Assay type: functional, organism-based
Conditions: Plasmodium falciparum, 3D7

Structure (SMILES)	XC50 [nM]
CCC(CC)(Cc1ccccc1)NC(=O)[C@H](Cc1ccc(OC)c(OC)c1)Nc1ccc(C#N)c2ccccc12	866
O=C(NCCN1CCCC1)N1CCCN(c2ncnc3cc(-c4ccc(Cl)cc4)sc23)CC1	918
Cc1cc(N(C)C)nc(Nc2ccc(NC(=O)c3cccc(F)c3)cc2)n1	998
CN1CCC(C(=O)N(Cc2ccc(-c3ccc(CNCCc4ccccc4)cn3)cc2)C2Cc3ccccc3C2)CC1	1060
CCCCC(=O)N(CCOC)Cc1ccc(-c2ccc(CNCCC)cn2)cc1	730
CCN(CC)CC(O)Cc1c2ccc([N+](=O)[O-])cc2nc2cc(OC)c(OC)cc12 (stereo unspecified)	739
Cc1cc2nc(-c3ccc(C(=O)NCc4ccc(Cl)c(Cl)c4)cc3)[nH]c2cc1C	828
CCCNCc1ccc(-c2ccc(CN(CCOC)C(=O)c3ccccc3)cc2)nc1	876
COc1ccc(C2CCN(CCN3CCC(NC(=O)c4ccc(-c5cccc(C(F)(F)F)c5C(F)(F)F)cc4)CC3)CC2)c(OC)c1	419
OC(CNCc1ccccc1OCc1ccccc1)c1cccc(Cl)c1 (stereo unspecified)	219
O=C(NC1CCN(CCN2CCC(c3cn(CCO)c4ccccc34)CC2)CC1)c1ccc(-c2ccc(C(F)(F)F)cc2)cc1	740
Nc1c2ccccc2nc2cc(Cl)ccc12	715
CSc1nc2nc(C)c(Cc3cccc(C(F)(F)F)c3)c(C)n2n1	193
CNC(=N)c1ccc(NC(=O)c2ccc(C(=O)Nc3ccc(C(=N)NC)cc3)cc2)cc1	47.1
CCc1sc(N2CCN(C)CC2)nc1C(=O)Nc1ccc(F)cc1C(F)(F)F	178
CCN1CCCC(CNC(=O)/C(=C/C=C/c2cc3cc(Cl)c(Cl)cc3[nH]2)OC)C1 (stereo unspecified)	888
CCN1CCCC(Nc2ccnc3cc4ccccc4cc23)C1 (stereo unspecified)	104
COc1cc(Cc2cnc(N)nc2N)cc(OCCCOc2ccccc2)c1OC	1080
CS(=O)(=O)NCCCNCc1ccc(-c2cccc(-c3nc4cc(C(F)(F)F)ccc4[nH]3)c2)cc1	854
COc1cc(C(C)C)ccc1C1CCN(CCCCNC(=O)c2ccc(NC(=O)c3ccc(Cl)cc3)cc2)CC1	449
Fc1ccc(Nc2ccnc3cc(I)ccc23)c(Cl)c1	1080
Nc1nc(N)c2c3c(cnc2n1)CCCC3	770
CCOC(=O)c1ccc(NC(=O)NC2CCN(CCCCCNC(=O)/C=C/c3ccc(Cl)c(Cl)c3)C2)cc1 (stereo unspecified)	487
COc1ccc(C(=O)CCc2ccc(O)cc2)cc1	483
O=C(/C=C/c1ccc(Cl)cc1Cl)NCCCCCN1CCC(c2c[nH]c3ccccc23)CC1	941
O=C(Nc1cccc(-c2nn3ccccc3c2-c2ccnc(Nc3ccc(C(=O)N4CCOCC4)cc3)n2)c1)c1c(F)cccc1F	383

Structure (SMILES)	XC50 [nM]
CCCCN1CCN(Cc2cccc(NC(=O)c3ccc(Cl)c(Cl)c3)c2)CC1	1160
CN1CC[C@@H](Oc2cc(NC(=O)Nc3ccccc3Br)ccc2Cl)C1	1100
N#Cc1ccc(-c2ccc(C(=O)NC3CCN(CCN4CCC(c5cn(CCO)c6ccccc56)CC4)CC3)cc2)cc1	758
CCCC(C)N(Cc1ccc(C(C)(C)C)cc1)C(=O)c1cccc(OC)c1 (stereo unspecified)	336
O=C1CCCN1CCCNCc1ccc(-c2cccc(-c3nc4ccccc4[nH]3)c2)cc1	1020
CC(C)OC(=O)c1ccccc1S(N)(=O)=O	674
O=C(/C=C/c1ccc(Cl)c(Cl)c1)NCCCCCN1CCCN(C(=O)Nc2cc(F)cc(F)c2)CC1	768
COc1ccc2nccc([C@@H](O)CN3CCC(NC(=O)Cc4cccc5c(Br)cccc45)CC3)c2c1	796
CCOC(=O)CCCOc1cc(Cc2cnc(N)nc2N)cc(OC)c1OC	239
CN(C)CCNc1ncnc2c1[nH]c1ccc(Br)cc12	742
CCOc1c(C)cc(C(F)(F)F)cc1CNCCCNc1cc(=O)c2ccccc2[nH]1	161
COc1cc(NCCCNC(=O)c2cc3c(Cl)cc(Cl)cc3[nH]2)nc2ccccc12	144
CCOc1cc2ncnc(Nc3ccc(OCc4c(Cl)cccc4Cl)c(OC)c3)c2cc1OCC	1050
CCOC(=O)N1CCN(CCCCNc2c3ccc(Cl)cc3nc3ccc(OC)cc23)CC1	121
COc1ccccc1C1CCN(C2CCC(NC(=O)/C=C/c3cc(C(F)(F)F)cc(C(F)(F)F)c3)CC2)CC1 (stereo unspecified)	1200
CCCCNC(c1ccc(Cl)cc1)C(O)c1ccc(Cl)cc1 (stereo unspecified)	619
Cc1cc(C2CCN(CCCCNC(=O)c3ccc(NC(=O)c4ccc(Cl)cc4)cc3)CC2)c(C)cc1OCCN(C)C	766
CN(c1ccccc1)S(=O)(=O)c1cccc(NC(=O)c2ccc(-n3ccnc3)c([N+](=O)[O-])c2)c1	1130
O=C(c1cccc(-c2noc(C(F)(F)F)n2)c1)N1CCN(c2nsc3ccccc23)CC1	145
CCNC1=NC2=C(CC(C(C)(C)C)CC2)C2(CCC(C(C)(C)C)CC2)S1 (stereo unspecified)	834
Cc1ccc(N(CCC(=N)N)Cc2ccccc2)cc1	657
CC(=O)Nc1ccc(C(=O)Nc2ccc(-c3cccc(-c4nc5cc(F)ccc5[nH]4)c3)cc2)cn1	231
CCCCc1cc(=O)oc2cc(C)cc(OCc3ccccc3F)c12	1030
CCCCc1ccc(NC(=O)Nc2ccc3c(c2)CCNCC3)cc1	585
CO/N=C(\C)c1ccc2c(c1)CCN(CCC1CCC(NC(=O)/C=C/c3ccc(F)cc3)CC1)CC2 (stereo unspecified)	1070
Nc1ncc(-c2ccc3ncccc3c2)c(N)n1	918

Structure (SMILES)	XC50 [nM]
CC(O)C1CCCCN1C(=O)c1ccc(-c2ccc(-c3nc4ccccc4[nH]3)s2)cc1 (stereo unspecified)	966
COc1ccc(CNCCCCCCNCc2ccc(OC)c3ccccc23)c2ccccc12	581
N#Cc1ccc(-c2ccc(C(=O)NCCCCN3CCC(c4cc(Br)c5c(c4O)CCCC5)CC3)cc2)cc1	154
CC(C)(C)N1CCC(N(Cc2ccc(-c3ccc(C(F)(F)F)cc3)cc2)C(=O)Cn2c(CCc3cccc(F)c3F)nc(=O)c3cccnc32)CC1	757
COc1ccc2nccc(N3CCC(SCCNCc4cc5c(cn4)OCCO5)C3)c2n1 (stereo unspecified)	768
CCCNCc1ccc(-c2ccc(CN(C(=O)c3nn(-c4ccccc4)nc3C)C(C)CN(C)C)cc2)nc1 (stereo unspecified)	923
COc1cccc(C(=O)NCc2cccs2)c1Oc1ccccc1	63.5
CCCc1ccc(NC(=O)c2cccc(CN3CCCN(Cc4cccc(C#N)c4)CC3)c2)cc1	976
CCNc1cc(C(=O)N[C@@H](Cc2ccccc2)[C@H](O)CNCC(C)C)cc(N2CCCC2=O)c1	485
Cn1cc(-c2ccccc2C(=O)O)c(=O)c2cc(Cl)ccc21	917
CCCCCOc1ccc(CC(C)NCC(O)c2cccc(Cl)c2)cc1 (stereo unspecified)	653
FC(F)(F)c1ccc2[nH]c(-c3cccc(-c4ccc(CNCCN5CCNCC5)cc4)c3)nc2c1	862
CC(C)(CN)c1nc(-c2ccc(Cl)c(O)c2)c(-c2ccncc2)[nH]1	756
C=CCc1cc(Cc2cnc(N)nc2N)c2ccc(C)nc2c1OC	691
Cc1nc(NC(=N)N)nc2cc3c(cc12)CCC3	916
CN(C)c1ccc(CN2CCC(NC(=O)c3ccc(-c4ccccc4F)s3)CC2)cc1	1120
COc1cccc(C(=O)Nc2ccc(S(=O)(=O)c3cc4c(cc3OC)CCN(C)CC4)cc2)c1	1100
CCC(=O)N1CCc2cc(Br)cc(S(=O)(=O)N3CC(C)CC(C)C3)c21 (stereo unspecified)	932
CN(C)CCNC(=O)N1CCCN(c2ncnc3cc(-c4ccccc4)sc23)CC1	786
COc1ccc2nccc([C@@H](O)CN3CCC(NCc4ccc5cccc(O)c5n4)CC3)c2c1	1130
Cn1nc(-c2ccccc2F)c2cc(C(=O)Nc3cccnc3)sc21	810
CCc1cn(CCOC)c2ccc(C(=O)N[C@@H](Cc3ccccc3)[C@H](O)CNC(C)(C)CCCC(C)C)cc12	569
Cc1ccc(S(=O)(=O)NC2CCN(c3ccnc4cc(Cl)ccc34)C2)cc1 (stereo unspecified)	621
CNCCNCc1ccc(-c2ccc(-c3nc4cc(C(F)(F)F)ccc4[nH]3)cc2)cc1	314
N=C(NCCc1c[nH]c2ccccc12)NCc1ccccc1Cl	112
Cc1cc2c(NC(=O)NC3CCN(Cc4ccc(Cl)c(Cl)c4)CC3)cccc2cn1	681

Structure (SMILES)	XC50 [nM]
CN(C)Cc1ccc(-c2cc3ncnc(Nc4ccc(OCc5cccc(F)c5)c(Cl)c4)c3s2)[nH]1	174
C[C@@H](CC1CCCCC1)NCc1ccccc1O	932
Cc1cc(C(=O)Nc2ccc(-c3ccccc3)cc2)no1	694
CCc1ccccc1NC(=O)CN1CCN(c2ncnc3scc(-c4ccc(F)cc4)c23)CC1	702
CN(C)Cc1ccc(-c2ccc3c(Nc4ccc(Cl)cc4F)ccnc3c2)o1	241
Nc1nc(N)c2c(ccc3c2cnn3S(=O)(=O)N2CCCC2)n1	18.6
COC(=O)c1cc(NC(=O)Nc2ccc(Cn3ncc(N4CCCNCC4)c(Cl)c3=O)cc2)cc(C(=O)OC)c1	708
COCCOc1nc(N)nc2ncc(Cc3cc(OC)ccc3OC)c(C)c12	426
COc1ccc2nc(C)cc(N/N=C/c3ccccc3[N+](=O)[O-])c2c1	177
CNC(=O)c1ccccc1Nc1nc(Nc2ccc(CCN3CCN(C)CC3)cc2)ncc1Cl	651
O=C(/C=C/c1ccc(Cl)c(Cl)c1)NCCCCCN1CCC(NC(=O)Nc2ccc(Cl)c(C(F)(F)F)c2)CC1	650
CC(=O)c1sc(NC(=O)Nc2ccc(C)cc2C)nc1C	906
Cn1nccc1C(=O)NCCNCc1cccc(-c2csc(-c3nc4ccccc4[nH]3)c2)c1	840
COc1ccc(CN2CCN(CCOC(c3ccccc3)c3ccccc3)CC2)c(O)c1	1190
Cc1cccc2nc(-c3ccc(-c4cccc(CNCC5CCCO5)c4)s3)[nH]c12 (stereo unspecified)	972
CCCCCCNC(=O)C1Cc2c([nH]c3ccc(C)cc23)C2(CCN(Cc3ccccc3)CC2)N1 (stereo unspecified)	982
Oc1ccc2nc(N3CCNCC3)nc(NCCCc3ccccc3)c2c1	1370
c1ccc(Oc2ccc(Nc3ccnc(Nc4ccc(OCCN5CCCCC5)cc4)n3)cc2)cc1	604
O=C(NC1CCCCCC1)[C@@H]1CCCN1C(=O)c1ccc(O)c(-c2ccc(Cl)c(Cl)c2)c1	345
Cc1nc(C)c(-c2ccc(-c3ccc(F)cc3)cc2)c(O)c1Br	1070
CS(=O)(=O)N1CC2(CCN(CCC(NC(=O)/C=C/c3ccccc3)c3ccc(Cl)c(Cl)c3)CC2)c2ccccc21 (stereo unspecified)	782
Cc1cc(N[C@@H](Cc2ccccc2)C(=O)NCc2cccs2)nc(Nc2ccccc2)n1	1240
N#Cc1ccc(CN2CCC(Oc3ccc(NC(=O)c4ccccc4)cc3Cl)CC2)cc1	1260
